Experiment: Solvent addition to improve aqueous solubility of IOS blend in seawater brine
Type: physicochemical
Description: The first attempt to improve the aqueous solubility of these blends was to use small amounts of solvents added to an IOS blend and seawater brine. One percent solvent was added to 3.2% brine solutions (see Table 1 for brine composition) containing a 0.2% blend of 78% IOS 2024 and 22% IOS 2428. This particular surfactant blend had been identified for minimizing the oil-water interfacial tension between the crude oil and brine representative of a North Sea reservoir. Additions of 1% hexylene glycol, 1-hexanol, polyethylene glycol (mw=400) and sodium xylene sulfonate were studied.
A small amount of alcohol ethoxylate (8% relative to the IOS) was added to a second sample of sodium xylene sulfonate.

Row | Substance | remaining precipitate after addition of nonionic (second sample with 1% sodium xylene sulfonate plus alcohol ethoxylate (8% relative to the IOS), 3.2% brine, 0.2% IOS blend) | solubilizing of the solid in the IOS blend
1 | sodium xylene sulfonate | eliminated the rest of the precipitate | 
2 | polyethylene glycol (mw=400) |  | solubilizing most but not all of the solid

Source: patent publication US8759261B2, “Method and composition for enhanced hydrocarbons recovery” (Shell Oil Company, priority 2008, dated 2014)
